Results reported in article PMC8667885, “2-Aminobenzoxazole-appended coumarins as potent and selective inhibitors of tumour-associated carbonic anhydrases” (Journal of Enzyme Inhibition and Medicinal Chemistry, 2021).

The compounds below were run on SW1573 (non-small cell lung) (assay: antiproliferative assay (NCI protocol), SW1573). Conditions: Homo sapiens, SW1573; antiproliferative activity.
Format: cell-based, human
Procedure: (§1) The antiproliferative assays were conducted following the protocol of the US National Cancer Institute (NCI), with minor modifications.
(§2) The coumarin-benzoxazole hybrids were also tested as antiproliferative agents against a panel of six human solid tumour cell lines (Table 2): A549 (non-small cell lung), HBL-100 (breast), HeLa (cervix), SW1573 (non-small cell lung) as examples of drug-sensitive lines, and T-47D (breast) and WiDr (colon) as multidrug-resistant lines. A non-tumour cell line (BJ-hTert, human fibroblasts) was also used for analysing the selectivity. Chemotherapeutic agents 5-fluorouracyl (5-FU) and cisplatin (CDDP) were included in the study as drug references.

Structure (SMILES) | GI50 [µM]
Cc1cc(=O)oc2cc(OCCCCCCNc3nc4ccccc4o3)ccc12 [Compound 8c] | > 100
Cc1c(C)c2ccc(OCCCCCCNc3nc4ccccc4o3)cc2oc1=O [Compound 8d] | 20 ± 3
Cc1c(Cl)c(=O)oc2cc(OCCCCCCNc3nc4ccccc4o3)ccc12 [Compound 8e] | 3.1 ± 0.5

The compounds below were run against human CA I (Homo sapiens, UniProt P00915) (assay: stopped-flow CO2 hydrase assay, CA I). Conditions: not given.
Chain of human CA I (P00915 whole entry): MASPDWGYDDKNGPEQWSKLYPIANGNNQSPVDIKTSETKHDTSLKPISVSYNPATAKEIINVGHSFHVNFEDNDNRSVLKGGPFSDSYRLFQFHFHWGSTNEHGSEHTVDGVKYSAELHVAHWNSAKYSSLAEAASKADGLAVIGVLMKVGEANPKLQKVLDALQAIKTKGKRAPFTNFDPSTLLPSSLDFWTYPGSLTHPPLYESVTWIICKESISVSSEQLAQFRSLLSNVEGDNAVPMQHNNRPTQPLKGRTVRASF

Ki [µM] | Structure (SMILES)
> 10 | Cc1cc(=O)oc2cc(OCCCCCCNc3nc4ccccc4o3)ccc12 [Compound 8c]
> 10 | Cc1c(C)c2ccc(OCCCCCCNc3nc4ccccc4o3)cc2oc1=O [Compound 8d]
> 10 | Cc1c(Cl)c(=O)oc2cc(OCCCCCCNc3nc4ccccc4o3)ccc12 [Compound 8e]

What follows are compounds tested on BJ-hTert, human fibroblasts (assay: antiproliferative assay (NCI protocol), non-tumour BJ-hTert). Conditions: BJ-hTert.
Format: cell-based
Procedure: as §1, §2

Structure (SMILES) | activity against the non-tumour cell line (in words)
Cc1c(C)c2ccc(OCCCCCCNc3nc4ccccc4o3)cc2oc1=O [Compound 8d] | weak activity

Same assay, conditions: Fibroblast; non-tumour cell line, human fibroblasts

Structure (SMILES) | GI50 [µM]
Cc1cc(=O)oc2cc(OCCCCCCNc3nc4ccccc4o3)ccc12 [Compound 8c] | > 100
Cc1c(C)c2ccc(OCCCCCCNc3nc4ccccc4o3)cc2oc1=O [Compound 8d] | > 50
Cc1c(Cl)c(=O)oc2cc(OCCCCCCNc3nc4ccccc4o3)ccc12 [Compound 8e] | > 100

What follows are compounds tested on A549 (non-small cell lung) (assay: antiproliferative assay (NCI protocol), A549). Conditions: Homo sapiens, A549; antiproliferative activity.
Format: cell-based, human
Procedure: as §1, §2

Structure (SMILES) | GI50 [µM]
Cc1cc(=O)oc2cc(OCCCCCCNc3nc4ccccc4o3)ccc12 [Compound 8c] | 8.3 ± 1.6
Cc1c(C)c2ccc(OCCCCCCNc3nc4ccccc4o3)cc2oc1=O [Compound 8d] | 15 ± 3
Cc1c(Cl)c(=O)oc2cc(OCCCCCCNc3nc4ccccc4o3)ccc12 [Compound 8e] | 2.6 ± 0.5

The compounds below were run against human CA II (Homo sapiens, UniProt P00918) (assay: stopped-flow CO2 hydrase assay, CA II). Conditions: not given.

Ki [µM] | Structure (SMILES)
> 10 | Cc1cc(=O)oc2cc(OCCCCCCNc3nc4ccccc4o3)ccc12 [Compound 8c]
> 10 | Cc1c(C)c2ccc(OCCCCCCNc3nc4ccccc4o3)cc2oc1=O [Compound 8d]
> 10 | Cc1c(Cl)c(=O)oc2cc(OCCCCCCNc3nc4ccccc4o3)ccc12 [Compound 8e]

The compounds below were run against human CA XII (Homo sapiens, UniProt O43570) (assay: stopped-flow CO2 hydrase assay, CA XII). Conditions: not given.
Chain of human CA XII (O43570 25-354): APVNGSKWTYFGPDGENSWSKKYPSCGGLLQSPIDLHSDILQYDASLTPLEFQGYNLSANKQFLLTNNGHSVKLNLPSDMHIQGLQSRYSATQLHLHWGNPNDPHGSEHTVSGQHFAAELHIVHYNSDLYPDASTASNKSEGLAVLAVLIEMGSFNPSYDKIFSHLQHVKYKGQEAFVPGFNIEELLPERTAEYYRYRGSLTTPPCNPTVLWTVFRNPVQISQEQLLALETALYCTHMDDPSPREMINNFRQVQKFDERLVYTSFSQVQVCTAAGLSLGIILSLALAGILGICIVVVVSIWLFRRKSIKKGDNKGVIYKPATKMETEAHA

Ki [µM] | Structure (SMILES)
0.0651 | Cc1cc(=O)oc2cc(OCCCCCCNc3nc4ccccc4o3)ccc12 [Compound 8c]
0.0698 | Cc1c(C)c2ccc(OCCCCCCNc3nc4ccccc4o3)cc2oc1=O [Compound 8d]
0.0757 | Cc1c(Cl)c(=O)oc2cc(OCCCCCCNc3nc4ccccc4o3)ccc12 [Compound 8e]

Same assay, conditions: ratio of Ki CA I / CA XII

Selectivity ratio I/XII | Structure (SMILES)
>153.6 | Cc1cc(=O)oc2cc(OCCCCCCNc3nc4ccccc4o3)ccc12 [Compound 8c]
>143.3 | Cc1c(C)c2ccc(OCCCCCCNc3nc4ccccc4o3)cc2oc1=O [Compound 8d]
>132.1 | Cc1c(Cl)c(=O)oc2cc(OCCCCCCNc3nc4ccccc4o3)ccc12 [Compound 8e]

Same assay, conditions: ratio of Ki CA II / CA XII

Selectivity ratio II/XII | Structure (SMILES)
>153.6 | Cc1cc(=O)oc2cc(OCCCCCCNc3nc4ccccc4o3)ccc12 [Compound 8c]
>143.3 | Cc1c(C)c2ccc(OCCCCCCNc3nc4ccccc4o3)cc2oc1=O [Compound 8d]
>132.1 | Cc1c(Cl)c(=O)oc2cc(OCCCCCCNc3nc4ccccc4o3)ccc12 [Compound 8e]

These compounds were tested against human CA IX (Homo sapiens, UniProt Q16790) (assay: stopped-flow CO2 hydrase assay, CA IX). Conditions: not given.

Ki [µM] | Structure (SMILES)
0.0823 | Cc1cc(=O)oc2cc(OCCCCCCNc3nc4ccccc4o3)ccc12 [Compound 8c]
0.0645 | Cc1c(C)c2ccc(OCCCCCCNc3nc4ccccc4o3)cc2oc1=O [Compound 8d]
0.0743 | Cc1c(Cl)c(=O)oc2cc(OCCCCCCNc3nc4ccccc4o3)ccc12 [Compound 8e]

Same assay, conditions: ratio of Ki CA I / CA IX

Selectivity ratio I/IX | Structure (SMILES)
>121.5 | Cc1cc(=O)oc2cc(OCCCCCCNc3nc4ccccc4o3)ccc12 [Compound 8c]
>155.0 | Cc1c(C)c2ccc(OCCCCCCNc3nc4ccccc4o3)cc2oc1=O [Compound 8d]
>134.6 | Cc1c(Cl)c(=O)oc2cc(OCCCCCCNc3nc4ccccc4o3)ccc12 [Compound 8e]

Same assay, conditions: ratio of Ki CA II / CA IX

Selectivity ratio II/IX | Structure (SMILES)
>121.5 | Cc1cc(=O)oc2cc(OCCCCCCNc3nc4ccccc4o3)ccc12 [Compound 8c]
>155.0 | Cc1c(C)c2ccc(OCCCCCCNc3nc4ccccc4o3)cc2oc1=O [Compound 8d]
>134.6 | Cc1c(Cl)c(=O)oc2cc(OCCCCCCNc3nc4ccccc4o3)ccc12 [Compound 8e]

What follows are compounds tested on panel of six human solid tumour cell lines (assay: antiproliferative assay, whole panel of tumour cell lines). Conditions: Homo sapiens; range over the tumour cell lines; read-out: GI50 for all cell lines.
Format: cell-based
Procedure: as §1, §2

GI50 [µM] | Structure (SMILES)
2.6 to 5.1 | Cc1c(Cl)c(=O)oc2cc(OCCCCCCNc3nc4ccccc4o3)ccc12 [Compound 8e]

Same assay, conditions: multidrug-resistant cell lines

Structure (SMILES) | increased activity compared to 5-FU | increased activity compared to CDDP
Cc1c(Cl)c(=O)oc2cc(OCCCCCCNc3nc4ccccc4o3)ccc12 [Compound 8e] | up to 11.7 fold | up to 6.2 fold

What follows are compounds tested against human CA IV (Homo sapiens, UniProt P22748) (assay: stopped-flow CO2 hydrase assay, CA IV). Conditions: not given.
Chain of human CA IV (P22748 19-312): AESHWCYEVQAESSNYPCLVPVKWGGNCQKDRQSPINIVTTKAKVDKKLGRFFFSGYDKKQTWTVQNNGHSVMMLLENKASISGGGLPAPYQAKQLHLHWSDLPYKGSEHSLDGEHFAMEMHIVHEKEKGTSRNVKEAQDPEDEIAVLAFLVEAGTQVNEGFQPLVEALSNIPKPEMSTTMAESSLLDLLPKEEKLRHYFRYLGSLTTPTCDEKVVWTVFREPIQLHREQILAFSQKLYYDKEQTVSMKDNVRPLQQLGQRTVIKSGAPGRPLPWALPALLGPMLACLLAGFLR

Ki [µM] | Structure (SMILES)
0.984 | Cc1cc(=O)oc2cc(OCCCCCCNc3nc4ccccc4o3)ccc12 [Compound 8c]
0.802 | Cc1c(C)c2ccc(OCCCCCCNc3nc4ccccc4o3)cc2oc1=O [Compound 8d]
0.82 | Cc1c(Cl)c(=O)oc2cc(OCCCCCCNc3nc4ccccc4o3)ccc12 [Compound 8e]

What follows are compounds tested on T-47D (breast) (assay: antiproliferative assay (NCI protocol), T-47D). Conditions: Homo sapiens, T47D; antiproliferative activity, multidrug-resistant line.
Format: cell-based, human
Procedure: as §1, §2

Structure (SMILES) | GI50 [µM]
Cc1cc(=O)oc2cc(OCCCCCCNc3nc4ccccc4o3)ccc12 [Compound 8c] | > 100
Cc1c(C)c2ccc(OCCCCCCNc3nc4ccccc4o3)cc2oc1=O [Compound 8d] | > 100
Cc1c(Cl)c(=O)oc2cc(OCCCCCCNc3nc4ccccc4o3)ccc12 [Compound 8e] | 4.3 ± 0.1

Each compound was assayed on WiDr (colon) (assay: antiproliferative assay (NCI protocol), WiDr). Conditions: Homo sapiens, WiDr; antiproliferative activity, multidrug-resistant line.
Format: cell-based, human
Procedure: as §1, §2

Structure (SMILES) | GI50 [µM]
Cc1cc(=O)oc2cc(OCCCCCCNc3nc4ccccc4o3)ccc12 [Compound 8c] | > 100
Cc1c(C)c2ccc(OCCCCCCNc3nc4ccccc4o3)cc2oc1=O [Compound 8d] | > 100
Cc1c(Cl)c(=O)oc2cc(OCCCCCCNc3nc4ccccc4o3)ccc12 [Compound 8e] | 4.2 ± 0.5

These compounds were tested against human CA VII (Homo sapiens, UniProt P43166) (assay: stopped-flow CO2 hydrase assay, CA VII). Conditions: not given.
Chain of human CA VII (P43166 whole entry): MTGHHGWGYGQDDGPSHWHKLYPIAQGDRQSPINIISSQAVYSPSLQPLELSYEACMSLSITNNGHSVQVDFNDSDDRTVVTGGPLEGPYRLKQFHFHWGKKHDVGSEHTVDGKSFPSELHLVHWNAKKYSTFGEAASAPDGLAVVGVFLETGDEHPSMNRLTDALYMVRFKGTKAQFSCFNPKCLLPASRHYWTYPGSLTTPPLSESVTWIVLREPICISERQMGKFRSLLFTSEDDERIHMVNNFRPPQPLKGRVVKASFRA

Ki [µM] | Structure (SMILES)
> 10 | Cc1cc(=O)oc2cc(OCCCCCCNc3nc4ccccc4o3)ccc12 [Compound 8c]
> 10 | Cc1c(C)c2ccc(OCCCCCCNc3nc4ccccc4o3)cc2oc1=O [Compound 8d]
> 10 | Cc1c(Cl)c(=O)oc2cc(OCCCCCCNc3nc4ccccc4o3)ccc12 [Compound 8e]

These compounds were tested on HeLa (cervix) (assay: antiproliferative assay (NCI protocol), HeLa). Conditions: Homo sapiens, HeLa; antiproliferative activity.
Format: cell-based, human
Procedure: as §1, §2

Structure (SMILES) | GI50 [µM]
Cc1cc(=O)oc2cc(OCCCCCCNc3nc4ccccc4o3)ccc12 [Compound 8c] | 96 ± 7
Cc1c(C)c2ccc(OCCCCCCNc3nc4ccccc4o3)cc2oc1=O [Compound 8d] | 29 ± 8
Cc1c(Cl)c(=O)oc2cc(OCCCCCCNc3nc4ccccc4o3)ccc12 [Compound 8e] | 3.9 ± 0.7

Each compound was assayed on HBL-100 (breast) (assay: antiproliferative assay (NCI protocol), HBL-100). Conditions: Homo sapiens, HBL-100; antiproliferative activity.
Format: cell-based, human
Procedure: as §1, §2

Structure (SMILES) | GI50 [µM]
Cc1cc(=O)oc2cc(OCCCCCCNc3nc4ccccc4o3)ccc12 [Compound 8c] | > 100
Cc1c(C)c2ccc(OCCCCCCNc3nc4ccccc4o3)cc2oc1=O [Compound 8d] | 53 ± 14
Cc1c(Cl)c(=O)oc2cc(OCCCCCCNc3nc4ccccc4o3)ccc12 [Compound 8e] | 5.1 ± 1.4
